From ChEMBL document CHEMBL5257081, “Discovery of novel PROTACs based on multi-targeted angiogenesis inhibitors” (Bioorg Med Chem Lett, 2023)
pIC50: −log10 of the molar value. Activity calls are given as the source filed them. No cut-off for these calls is given here.

How the values were obtained:
[1] = system: HEK293; assay: Cytotoxicity against human HEK293 cells assessed as inhibition of cell growth; assay type: toxicity, cell-based
[2] = system: A549; assay: Antiproliferative activity against human A549 cells assessed as inhibition of cell growth; assay type: functional, cell-based
[3] = Antiproliferative activity against human EA.hy 926 cells assessed as inhibition of cell growth; assay type: toxicity, cell-based
[4] = system: MDA-MB-453; assay: Antiproliferative activity against human MDA-MB-453 cells assessed as inhibition of cell growth; assay type: functional, cell-based
[5] = target: T1, von Hippel-Lindau disease tumor suppressor/Vascular endothelial growth factor receptor 2 (Homo sapiens, UniProt P35968+P40337); assay: Protac activity at VHL E3 ubiquitin ligase/VEGFR-2 (unknown origin) assessed as […] by ADP-Glo Kinase assay
Target sequence in this assay (P35968 whole entry): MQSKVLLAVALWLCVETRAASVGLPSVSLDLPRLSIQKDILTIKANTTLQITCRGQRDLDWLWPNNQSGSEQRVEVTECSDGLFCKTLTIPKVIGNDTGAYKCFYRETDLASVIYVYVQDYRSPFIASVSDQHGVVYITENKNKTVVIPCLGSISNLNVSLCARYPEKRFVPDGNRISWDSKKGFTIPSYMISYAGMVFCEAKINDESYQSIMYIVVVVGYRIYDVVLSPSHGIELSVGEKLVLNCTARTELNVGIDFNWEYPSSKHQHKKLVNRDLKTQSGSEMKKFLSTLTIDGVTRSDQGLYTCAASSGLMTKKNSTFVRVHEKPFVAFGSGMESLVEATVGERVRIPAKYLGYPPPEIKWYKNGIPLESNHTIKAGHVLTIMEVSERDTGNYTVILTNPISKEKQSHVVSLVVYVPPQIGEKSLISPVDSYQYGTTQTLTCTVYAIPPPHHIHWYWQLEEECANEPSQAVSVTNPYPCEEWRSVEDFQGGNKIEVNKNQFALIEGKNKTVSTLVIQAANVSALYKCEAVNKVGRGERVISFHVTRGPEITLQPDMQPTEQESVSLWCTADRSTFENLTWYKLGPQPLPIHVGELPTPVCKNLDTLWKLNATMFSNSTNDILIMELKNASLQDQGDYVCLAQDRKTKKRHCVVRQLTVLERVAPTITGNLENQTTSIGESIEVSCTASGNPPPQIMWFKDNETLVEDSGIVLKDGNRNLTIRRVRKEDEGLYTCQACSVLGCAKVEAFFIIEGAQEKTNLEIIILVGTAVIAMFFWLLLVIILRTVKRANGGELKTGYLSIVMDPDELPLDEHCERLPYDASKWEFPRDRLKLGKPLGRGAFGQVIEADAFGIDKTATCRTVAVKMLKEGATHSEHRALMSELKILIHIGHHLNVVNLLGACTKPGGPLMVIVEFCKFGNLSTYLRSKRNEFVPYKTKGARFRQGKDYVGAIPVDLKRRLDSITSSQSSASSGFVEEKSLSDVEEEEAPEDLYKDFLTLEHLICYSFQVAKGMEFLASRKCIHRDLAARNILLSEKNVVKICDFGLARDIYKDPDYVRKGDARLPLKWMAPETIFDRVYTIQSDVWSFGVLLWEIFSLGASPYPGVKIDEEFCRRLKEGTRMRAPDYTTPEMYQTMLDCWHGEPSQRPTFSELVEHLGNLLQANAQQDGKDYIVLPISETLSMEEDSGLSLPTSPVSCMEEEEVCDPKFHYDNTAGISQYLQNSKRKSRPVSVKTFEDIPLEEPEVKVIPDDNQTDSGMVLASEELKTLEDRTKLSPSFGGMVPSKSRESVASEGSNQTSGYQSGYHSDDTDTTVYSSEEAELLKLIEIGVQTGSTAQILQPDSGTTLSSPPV
Target sequence in this assay (P40337 whole entry): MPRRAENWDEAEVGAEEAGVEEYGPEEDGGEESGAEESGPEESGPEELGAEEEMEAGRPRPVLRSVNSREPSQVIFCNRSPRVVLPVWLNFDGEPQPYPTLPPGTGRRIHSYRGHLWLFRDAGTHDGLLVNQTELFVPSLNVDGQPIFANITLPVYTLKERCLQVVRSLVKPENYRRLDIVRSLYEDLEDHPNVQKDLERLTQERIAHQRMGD

[6] = target: T2, von Hippel-Lindau disease tumor suppressor/Serine/threonine-protein kinase B-raf (Homo sapiens) (UniProt P15056+P40337); assay: Protac activity at E3 ubiquitin ligase/BRAF in human EA.hy 926 cells assessed as degradation of BRAF protein at 40 uM incubated for 48 hrs by western blot assay; assay type: cell-based
T2 sequence (P15056 whole entry, looked up): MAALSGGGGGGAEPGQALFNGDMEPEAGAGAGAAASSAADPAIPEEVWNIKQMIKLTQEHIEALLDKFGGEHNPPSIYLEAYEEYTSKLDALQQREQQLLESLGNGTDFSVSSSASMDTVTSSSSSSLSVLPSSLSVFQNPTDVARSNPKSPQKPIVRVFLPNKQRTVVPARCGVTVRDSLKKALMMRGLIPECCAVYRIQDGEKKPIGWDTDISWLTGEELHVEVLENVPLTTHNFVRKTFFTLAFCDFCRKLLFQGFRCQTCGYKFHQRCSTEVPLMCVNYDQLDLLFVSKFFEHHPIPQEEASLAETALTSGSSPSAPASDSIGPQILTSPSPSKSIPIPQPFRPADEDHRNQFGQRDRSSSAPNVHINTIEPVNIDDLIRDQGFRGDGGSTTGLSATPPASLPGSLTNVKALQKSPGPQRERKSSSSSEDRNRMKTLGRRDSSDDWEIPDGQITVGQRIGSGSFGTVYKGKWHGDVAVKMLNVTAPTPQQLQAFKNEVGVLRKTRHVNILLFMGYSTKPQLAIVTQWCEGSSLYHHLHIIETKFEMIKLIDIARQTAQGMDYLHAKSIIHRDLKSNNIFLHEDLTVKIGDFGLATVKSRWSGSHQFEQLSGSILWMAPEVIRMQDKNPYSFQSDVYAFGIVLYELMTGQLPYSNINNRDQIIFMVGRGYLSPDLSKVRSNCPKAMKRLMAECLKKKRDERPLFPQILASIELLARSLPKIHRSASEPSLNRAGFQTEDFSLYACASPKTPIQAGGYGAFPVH
T2 sequence (P40337 whole entry, looked up): as the sequence (P40337 whole entry) above

[7] = target: T1, von Hippel-Lindau disease tumor suppressor/Vascular endothelial growth factor receptor 2; assay: Protac activity at VHL E3 ubiquitin ligase/VEGFR-2 in human EA.hy 926 cells assessed as degradation of VEGFR-2 protein at 10 to 60 uM incubated for 48 hrs by western blot assay; assay type: cell-based; settings: dose 10-60 µM
Target sequence in this assay (P35968 20-1356 limits assumed): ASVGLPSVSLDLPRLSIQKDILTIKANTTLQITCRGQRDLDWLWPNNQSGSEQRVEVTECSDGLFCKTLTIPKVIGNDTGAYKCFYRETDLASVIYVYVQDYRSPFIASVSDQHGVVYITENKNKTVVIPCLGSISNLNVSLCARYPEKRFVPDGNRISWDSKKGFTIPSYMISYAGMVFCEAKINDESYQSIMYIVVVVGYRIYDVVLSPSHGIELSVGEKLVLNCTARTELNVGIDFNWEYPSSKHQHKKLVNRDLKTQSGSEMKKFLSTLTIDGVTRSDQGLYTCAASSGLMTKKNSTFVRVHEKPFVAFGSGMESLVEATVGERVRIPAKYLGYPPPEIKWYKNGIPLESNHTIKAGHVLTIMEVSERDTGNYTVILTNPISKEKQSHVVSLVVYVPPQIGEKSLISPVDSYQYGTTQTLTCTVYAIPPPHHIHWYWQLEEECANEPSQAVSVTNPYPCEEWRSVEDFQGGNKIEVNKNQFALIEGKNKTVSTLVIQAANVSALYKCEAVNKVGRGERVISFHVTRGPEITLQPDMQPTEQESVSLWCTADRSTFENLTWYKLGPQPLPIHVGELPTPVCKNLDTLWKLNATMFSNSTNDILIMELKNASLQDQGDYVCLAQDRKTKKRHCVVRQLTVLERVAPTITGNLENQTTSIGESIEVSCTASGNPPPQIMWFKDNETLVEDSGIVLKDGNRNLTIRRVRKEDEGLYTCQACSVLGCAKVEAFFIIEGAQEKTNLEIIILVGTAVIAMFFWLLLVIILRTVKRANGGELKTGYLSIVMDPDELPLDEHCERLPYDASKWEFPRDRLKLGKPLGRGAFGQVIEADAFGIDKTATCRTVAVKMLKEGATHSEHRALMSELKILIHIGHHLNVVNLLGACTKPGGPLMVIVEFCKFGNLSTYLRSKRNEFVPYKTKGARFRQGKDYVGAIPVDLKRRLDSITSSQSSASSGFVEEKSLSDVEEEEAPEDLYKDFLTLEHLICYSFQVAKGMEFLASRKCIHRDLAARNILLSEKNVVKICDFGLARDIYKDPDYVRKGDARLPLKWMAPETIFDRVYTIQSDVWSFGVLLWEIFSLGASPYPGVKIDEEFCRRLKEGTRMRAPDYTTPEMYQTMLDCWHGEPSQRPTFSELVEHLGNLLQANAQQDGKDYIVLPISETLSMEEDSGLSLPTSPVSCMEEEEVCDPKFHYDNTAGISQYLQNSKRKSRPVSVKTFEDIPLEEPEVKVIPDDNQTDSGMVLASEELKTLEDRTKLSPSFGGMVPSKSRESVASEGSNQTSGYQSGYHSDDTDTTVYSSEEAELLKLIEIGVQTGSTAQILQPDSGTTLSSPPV
Target sequence in this assay (P40337 whole entry partner): as the sequence (P40337 whole entry) above

[8] = target: T2, von Hippel-Lindau disease tumor suppressor/Serine/threonine-protein kinase B-raf (Homo sapiens); assay: Protac activity at E3 ubiquitin ligase/BRAF in human EA.hy 926 cells assessed as degradation of BRAF protein at 10 to 60 uM incubated for 48 hrs by western blot assay; assay type: cell-based; settings: dose 10-60 µM
[9] = system: EA.hy 926; assay: Induction of cell cycle arrest in human EA.hy 926 cells at 0.1 to 40 uM incubated for 48 hrs by propidium-iodide staining based flow cytometry analysis; assay type: functional; settings: dose 0.1-40 µM
[10] = target: T2, von Hippel-Lindau disease tumor suppressor/Serine/threonine-protein kinase B-raf (Homo sapiens); assay: Protac activity at E3 ubiquitin ligase/BRAF in human EA.hy 926 cells assessed as degradation of BRAF protein at 40 uM incubated for 4 hrs by western blot assay; assay type: cell-based
[11] = system: EA.hy 926; assay: Induction of apoptosis in human EA.hy 926 cells at 0.1 to 40 uM incubated for 72 hrs by annexin-V/PI staining based flow cytometry analysis; assay type: functional, cell-based; settings: dose 0.1-40 µM
[12] = target: T2, von Hippel-Lindau disease tumor suppressor/Serine/threonine-protein kinase B-raf (Homo sapiens); assay: Protac activity at E3 ubiquitin ligase/BRAF in human EA.hy 926 cells assessed as degradation of BRAF protein at 40 uM incubated for 4 to 48 hrs by western blot assay; assay type: cell-based; settings: time 4-48 hrs, TDE = time-dependent effect
[13] = system: EA.hy 926; assay: Induction of cell cycle arrest in human EA.hy 926 cells assessed as accumulation of cells at S pahse at 0.1 to 40 uM incubated for 48 hrs by propidium-iodide staining based flow cytometry analysis; assay type: functional; settings: dose 0.1-40 µM
[14] = system: EA.hy 926; assay: Induction of apoptosis in human EA.hy 926 cells assessed as late apoptotic cells at 1 uM incubated for 72 hrs by annexin-V/PI staining based flow cytometry analysis (reference value: 3.07%); assay type: functional
[15] = system: EA.hy 926; assay: Induction of apoptosis in human EA.hy 926 cells assessed as early apoptotic cells at 0.1 uM incubated for 72 hrs by annexin-V/PI staining based flow cytometry analysis (reference value: 0.71%); assay type: functional
[16] = system: EA.hy 926; assay: Induction of apoptosis in human EA.hy 926 cells assessed as early apoptotic cells at 10 uM incubated for 72 hrs by annexin-V/PI staining based flow cytometry analysis (reference value: 0.71%); assay type: functional
[17] = system: EA.hy 926; assay: Induction of apoptosis in human EA.hy 926 cells assessed as necrotic cells at 40 uM incubated for 72 hrs by annexin-V/PI staining based flow cytometry analysis (reference value: 2.34%); assay type: functional
[18] = system: EA.hy 926; assay: Induction of apoptosis in human EA.hy 926 cells assessed as necrotic cells at 20 uM incubated for 72 hrs by annexin-V/PI staining based flow cytometry analysis (reference value: 2.34%); assay type: functional
[19] = system: EA.hy 926; assay: Induction of apoptosis in human EA.hy 926 cells assessed as late apoptotic cells at 40 uM incubated for 72 hrs by annexin-V/PI staining based flow cytometry analysis (reference value: 3.07%); assay type: functional
[20] = system: EA.hy 926; assay: Induction of apoptosis in human EA.hy 926 cells assessed as viable cells at 40 uM incubated for 72 hrs by annexin-V/PI staining based flow cytometry analysis (reference value: 93.8%); assay type: functional; settings: read-out: Activity
[21] = system: EA.hy 926; assay: Induction of apoptosis in human EA.hy 926 cells assessed as necrotic cells at 1 uM incubated for 72 hrs by annexin-V/PI staining based flow cytometry analysis (reference value: 2.34%); assay type: functional
[22] = system: EA.hy 926; assay: Induction of apoptosis in human EA.hy 926 cells assessed as viable cells at 20 uM incubated for 72 hrs by annexin-V/PI staining based flow cytometry analysis (reference value: 93.8%); assay type: functional; settings: read-out: Activity
[23] = system: EA.hy 926; assay: Induction of apoptosis in human EA.hy 926 cells assessed as late apoptotic cells at 0.1 uM incubated for 72 hrs by annexin-V/PI staining based flow cytometry analysis (reference value: 3.07%); assay type: functional
[24] = system: EA.hy 926; assay: Induction of apoptosis in human EA.hy 926 cells assessed as late apoptotic cells at 10 uM incubated for 72 hrs by annexin-V/PI staining based flow cytometry analysis (reference value: 3.07%); assay type: functional
[25] = system: EA.hy 926; assay: Induction of apoptosis in human EA.hy 926 cells assessed as early apoptotic cells at 20 uM incubated for 72 hrs by annexin-V/PI staining based flow cytometry analysis (reference value: 0.71%); assay type: functional
[26] = system: EA.hy 926; assay: Induction of apoptosis in human EA.hy 926 cells assessed as viable cells at 0.1 uM incubated for 72 hrs by annexin-V/PI staining based flow cytometry analysis (reference value: 93.8%); assay type: functional; settings: read-out: Activity
[27] = system: EA.hy 926; assay: Induction of apoptosis in human EA.hy 926 cells assessed as late apoptotic cells at 20 uM incubated for 72 hrs by annexin-V/PI staining based flow cytometry analysis (reference value: 3.07%); assay type: functional
[28] = system: EA.hy 926; assay: Induction of apoptosis in human EA.hy 926 cells assessed as early apoptotic cells at 1 uM incubated for 72 hrs by annexin-V/PI staining based flow cytometry analysis (reference value: 0.71%); assay type: functional
[29] = system: EA.hy 926; assay: Induction of apoptosis in human EA.hy 926 cells assessed as viable cells at 10 uM incubated for 72 hrs by annexin-V/PI staining based flow cytometry analysis (reference value: 93.8%); assay type: functional; settings: read-out: Activity
[30] = system: EA.hy 926; assay: Induction of apoptosis in human EA.hy 926 cells assessed as necrotic cells at 0.1 uM incubated for 72 hrs by annexin-V/PI staining based flow cytometry analysis (reference value: 2.34%); assay type: functional
[31] = target: T1, von Hippel-Lindau disease tumor suppressor/Vascular endothelial growth factor receptor 2; assay: Protac activity at VHL E3 ubiquitin ligase/VEGFR-2 in human EA.hy 926 cells assessed as degradation of VEGFR-2 protein preincubated with carfilzomib; assay type: cell-based
Target sequence in this assay (P35968 20-1356 limits assumed): as the sequence (P35968 20-1356 limits assumed) above
Target sequence in this assay (P40337 whole entry partner): as the sequence (P40337 whole entry) above

[32] = system: EA.hy 926; assay: Induction of apoptosis in human EA.hy 926 cells assessed as viable cells at 1 uM incubated for 72 hrs by annexin-V/PI staining based flow cytometry analysis (reference value: 93.8%); assay type: functional; settings: read-out: Activity
[33] = target: T2, von Hippel-Lindau disease tumor suppressor/Serine/threonine-protein kinase B-raf (Homo sapiens); assay: Protac activity at E3 ubiquitin ligase/BRAF in human EA.hy 926 cells assessed as degradation of BRAF protein at 30 uM preincubated with S5 for 2 hrs followed by compound addition and measured after 48 hrs by Western blot analysis; assay type: cell-based
[34] = target: T2, von Hippel-Lindau disease tumor suppressor/Serine/threonine-protein kinase B-raf (Homo sapiens); assay: Protac activity at E3 ubiquitin ligase/BRAF in human EA.hy 926 cells assessed as degradation of BRAF protein at 30 uM preincubated with VH032 for 2 hrs followed by compound addition and measured after 48 hrs by Western blot analysis; assay type: cell-based
[35] = system: EA.hy 926; assay: Induction of apoptosis in human EA.hy 926 cells assessed as early apoptotic cells at 40 uM incubated for 72 hrs by annexin-V/PI staining based flow cytometry analysis (reference value: 0.71%); assay type: functional
[36] = system: EA.hy 926; assay: Induction of apoptosis in human EA.hy 926 cells assessed as necrotic cells at 10 uM incubated for 72 hrs by annexin-V/PI staining based flow cytometry analysis (reference value: 2.34%); assay type: functional
[37] = target: T1, von Hippel-Lindau disease tumor suppressor/Vascular endothelial growth factor receptor 2; assay: Protac activity at VHL E3 ubiquitin ligase/VEGFR-2 in human EA.hy 926 cells assessed as degradation of VEGFR-2 protein at […]; assay type: cell-based
Target sequence in this assay (P35968 20-1356 limits assumed): as the sequence (P35968 20-1356 limits assumed) above
Target sequence in this assay (P40337 whole entry partner): as the sequence (P40337 whole entry) above

[38] = system: EA.hy 926; assay: Cytotoxicity against human EA.hy 926 cells; assay type: toxicity, cell-based
[39] = target: T2, von Hippel-Lindau disease tumor suppressor/Serine/threonine-protein kinase B-raf (Homo sapiens); assay: Protac activity at E3 ubiquitin ligase/BRAF in human MDA-MB-231 cells assessed as degradation of BRAF protein; assay type: cell-based
[40] = target: T2, von Hippel-Lindau disease tumor suppressor/Serine/threonine-protein kinase B-raf (Homo sapiens); assay: Protac activity at E3 ubiquitin ligase/BRAF in human U87 cells assessed as degradation of BRAF protein; assay type: cell-based
[41] = target: T2, von Hippel-Lindau disease tumor suppressor/Serine/threonine-protein kinase B-raf (Homo sapiens); assay: Protac activity at E3 ubiquitin ligase/BRAF in human HepG2 cells assessed as degradation of BRAF protein; assay type: cell-based

With Nc1n[nH]c2cccc(-c3cccc(NC(=O)Nc4cccc(Cl)c4)c3)c12 the Activity [1] was “Non-Toxic”, the pIC50 [2] was 4.80 and the pIC50 [3] was 5.13. The pIC50 [4] was less than 4.00.

With Cc1ncsc1-c1ccc(CNC(=O)[C@@H]2C[C@@H](O)CN2C(=O)[C@@H](NC(=O)CCCCCCCCCCC(=O)n2nc(N)c3c(-c4cccc(NC(=O)Nc5cccc(Cl)c5)c4)cccc32)C(C)(C)C)cc1 the Activity [1] was “Non-Toxic”, the pIC50 [5] was 8.15 and the pIC50 [2] was less than 4.00. For the same compound, the Activity [6] was “Active”, the pIC50 [3] was 4.68 and the Activity [7] was “Active”. The Activity [8] was “Active”, the Activity [9] was “inactive” and the pIC50 [4] was less than 4.00. The Activity [10] was “Active”, the Activity [11] was “Active” and the Activity [12] was “Tde”.

With Cc1ncsc1-c1ccc(CNC(=O)[C@@H]2C[C@@H](O)CN2C(=O)[C@@H](NC(=O)CCCCCC(=O)n2nc(N)c3c(-c4cccc(NC(=O)Nc5cccc(Cl)c5)c4)cccc32)C(C)(C)C)cc1 the Activity [13] was “Active”, the Activity [14] was 3.2% and the Activity [1] was “Non-Toxic”. The Activity [15] was 0.57%, the Activity [16] was 0.77% and the Activity [17] was 3.7%. For the same compound, the Activity [18] was 7.08%, the Activity [19] was 2.62% and the viability at 40 µM [20] was 92.2%. The Activity [21] was 2.75%, the viability at 20 µM [22] was 88.1% and the pIC50 [5] was 7.38. The Activity [23] was 1.77%, the Activity [24] was 2.62% and the pIC50 [2] was less than 4.00. The Activity [25] was 0.86%, the viability at 0.1 µM [26] was 91.3% and the pIC50 [3] was 4.70. For the same compound, the Activity [7] was “Active”, the Activity [8] was “Active” and the Activity [27] was 3.93%. For the same compound, the Activity [28] was 0.96%, the pIC50 [4] was less than 4.00 and the viability at 10 µM [29] was 91.4%. For the same compound, the Activity [11] was “Active”, the Activity [30] was 6.32% and the Activity [31] was “inactive”. For the same compound, the viability at 1 µM [32] was 93.1%, the Activity [33] was “inactive” and the Activity [34] was “inactive”. The Activity [35] was 1.44% and the Activity [36] was 5.23%.

In the case of CC(C)C[C@H](NC(=O)[C@H](CCc1ccccc1)NC(=O)CN1CCOCC1)C(=O)N[C@@H](Cc1ccccc1)C(=O)N[C@@H](CC(C)C)C(=O)[C@@]1(C)CO1 [CARFILZOMIB], the Activity [37] was “Active” and the Activity [38] was “Toxic”.

In the case of Cc1ncsc1-c1ccc(CNC(=O)[C@@H]2C[C@@H](O)CN2C(=O)[C@@H](NC(=O)CCCCCCCCCCCCCCC(=O)n2nc(N)c3c(-c4cccc(NC(=O)Nc5cccc(Cl)c5)c4)cccc32)C(C)(C)C)cc1, the Activity [1] was “Non-Toxic”, the pIC50 [5] was 8.67 and the Activity [39] was “inactive”. For the same compound, the pIC50 [2] was less than 4.00, the pIC50 [3] was 4.54 and the Activity [40] was “Active”. The Activity [8] was “Dose-Dependent Effect”, the pIC50 [4] was less than 4.00 and the Activity [41] was “Active”.
